In the supplement of paper PMC10307832:

Tests used:
Test in all cases: relative viability (nuclei count vs DMSO), 5 days (fraction); higher = more cells survive
[1] = compound: CN(C)C[C@@H]1CCn2cc(c3ccccc32)C2=C(C(=O)NC2=O)c2cn(c3ccccc23)CCO1 [Ruboxistaurin] + CCNC(=O)c1noc(-c2cc(C(C)C)c(O)cc2O)c1-c1ccc(CN2CCOCC2)cc1 [Luminespib] (partner 0.01 µM)
Procedure, shortened: (§1)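 Each reported value is a median over duplicate plates. It expresses relative viability: treated-well nuclei count divided by vehicle-well nuclei count. Lung cancer cell lines in 1536-well plates were dosed by pin tool a day after seeding, alone with one drug or with a fixed anchor-drug dose plus five library-drug doses (not always all listed) in √10 steps, and nuclei were counted after 5 days.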

[2] = compound: CN(C)C[C@@H]1CCn2cc(c3ccccc32)C2=C(C(=O)NC2=O)c2cn(c3ccccc23)CCO1 [Ruboxistaurin] + C[C@]1(O)C[C@@H](c2nc(-c3ccc4ccc(-c5ccccc5)nc4c3)c3c(N)nccn32)C1 [Linsitinib] (partner 1 µM)
Procedure, shortened: as §1

[3] = compound: CN(C)C[C@@H]1CCn2cc(c3ccccc32)C2=C(C(=O)NC2=O)c2cn(c3ccccc23)CCO1 [Ruboxistaurin] + N=C(N)NC(=N)NCCc1ccccc1 [Phenformin] (partner 250 µM)
Procedure, shortened: as §1

[4] = compound: CN(C)C[C@@H]1CCn2cc(c3ccccc32)C2=C(C(=O)NC2=O)c2cn(c3ccccc23)CCO1 [Ruboxistaurin] + CS(=O)(=O)N1CCN(Cc2cc3nc(-c4cccc5[nH]ncc45)nc(N4CCOCC4)c3s2)CC1 [Pictilisib] (partner 1 µM)
Procedure, shortened: as §1

[5] = compound: CN(C)C[C@@H]1CCn2cc(c3ccccc32)C2=C(C(=O)NC2=O)c2cn(c3ccccc23)CCO1 [Ruboxistaurin] + C[C@@H](Oc1cc(-c2cnn(C3CCNCC3)c2)cnc1N)c1c(Cl)ccc(F)c1Cl [Crizotinib] (partner 1 µM)
Procedure, shortened: as §1

Row | Cell Line | relative viability ([1]; first compound 0.08 µM) | relative viability ([1]; first compound 0.8 µM) | relative viability ([1]; first compound 2.53 µM) | relative viability ([1]; first compound 8 µM) | relative viability ([2]; first compound 0.08 µM) | relative viability ([2]; first compound 0.8 µM) | relative viability ([2]; first compound 2.53 µM) | relative viability ([2]; first compound 8 µM) | relative viability ([3]; first compound 0.08 µM) | relative viability ([3]; first compound 0.8 µM) | relative viability ([3]; first compound 2.53 µM) | relative viability ([3]; first compound 8 µM) | relative viability ([4]; first compound 0.08 µM) | relative viability ([4]; first compound 0.8 µM) | relative viability ([4]; first compound 2.53 µM) | relative viability ([4]; first compound 8 µM) | relative viability ([5]; first compound 0.08 µM) | relative viability ([5]; first compound 0.8 µM) | relative viability ([5]; first compound 2.53 µM) | relative viability ([5]; first compound 8 µM)
1 | LU99A | 0.239 | 0.224 | 0.265 | 0.24 | 0.614 | 0.455 | 0.463 | 0.33 | 0.759 | 0.625 | 0.872 | 0.787 | 0.338 | 0.275 | 0.242 | 0.21 | 0.507 | 0.506 | 0.503 | 0.506
2 | SW 1573 | 0.232 | 0.208 | 0.314 | 0.182 | 0.879 | 0.839 | 0.799 | 0.772 | 0.408 | 0.141 | 0.445 | 0.282 | 0.468 | 0.39 | 0.542 | 0.37 | 0.855 | 0.74 | 0.942 | 0.688
3 | HOP-62 | 0.964 | 0.892 | 0.989 | 1.01 | 0.972 | 0.963 | 0.869 | 1 | 0.681 | 0.65 | 0.704 | 0.839 | 0.732 | 0.755 | 0.535 | 0.546 | 0.882 | 1.05 | 0.741 | 1.05
4 | UMC-11 | 1.04 | 0.804 | 0.961 | 0.695 | 0.976 | 0.884 | 0.987 | 0.642 | 0.321 | 0.33 | 0.315 | 0.354 | 0.892 | 0.596 | 0.728 | 0.509 | 0.537 | 0.554 | 0.64 | 0.465
5 | LCLC-103H | 1.02 | 0.791 | 0.934 | 0.808 | 1.13 | 0.834 | 0.883 | 1.15 | 0.336 | 0.285 | 0.336 | 0.321 | 0.632 | 0.611 | 0.511 | 0.533 | 1.21 | 0.929 | 0.905 | 1.01
6 | NCI-H1734 | 0.174 | 0.161 | 0.179 | 0.178 | 0.964 | 0.815 | 0.806 | 0.666 | 0.495 | 0.342 | 0.406 | 0.323 | 0.471 | 0.398 | 0.46 | 0.352 | 0.719 | 0.514 | 0.605 | 0.66
7 | EKVX | 0.945 | 0.843 | 0.919 | 0.926 | 1.08 | 0.948 | 0.971 | 0.931 | 0.249 | 0.221 | 0.234 | 0.26 | 0.53 | 0.423 | 0.438 | 0.354 | 1.09 | 0.989 | 0.983 | 0.895
8 | HARA | 0.612 | 0.495 | 0.837 | 0.601 | 1.15 | 0.922 | 1.08 | 0.657 | 0.493 | 0.404 | 0.535 | 0.475 | 0.431 | 0.327 | 0.325 | 0.137 | 1.07 | 0.919 | 1.18 | 1.03
9 | EMC-BAC-2 | 1.23 | 1.12 | 0.991 | 0.925 | 0.885 | 0.775 | 0.773 | 0.739 | 0.601 | 0.469 | 0.505 | 0.438 | 0.59 | 0.47 | 0.491 | 0.426 | 0.741 | 0.713 | 0.715 | 0.68
10 | PC-14 | 0.159 | 0.144 | 0.184 | 0.154 | 1.02 | 0.914 | 0.936 | 0.914 | 0.675 | 0.568 | 0.536 | 0.556 | 0.788 | 0.63 | 0.689 | 0.402 | 0.932 | 0.821 | 0.958 | 0.929
11 | NCI-H520 | 0.227 | 0.182 | 0.227 | 0.225 | 0.991 | 0.998 | 0.985 | 1.12 | 0.766 | 0.54 | 0.599 | 0.393 | 0.324 | 0.264 | 0.236 | 0.208 | 0.838 | 0.698 | 0.758 | 0.693
12 | NCI-H1755 | 0.511 | 0.328 | 0.417 | 0.406 | 1.04 | 0.976 | 0.973 | 0.879 | 0.678 | 0.584 | 0.586 | 0.635 | 0.422 | 0.362 | 0.373 | 0.264 | 0.932 | 0.771 | 0.868 | 0.87
13 | NCI-H2087 | 0.175 | 0.215 | 0.162 | 0.156 | 1.13 | 0.874 | 0.98 | 0.884 | 0.494 | 0.409 | 0.481 | 0.472 | 0.908 | 0.68 | 0.837 | 0.57 | 0.898 | 0.735 | 1.08 | 1.15
14 | NCI-H2023 | 0.679 | 0.426 | 0.668 | 0.344 | 0.721 | 0.53 | 0.616 | 0.492 | 0.448 | 0.388 | 0.445 | 0.383 | 0.243 | 0.179 | 0.194 | 0.156 | 0.691 | 0.588 | 0.565 | 0.503
15 | CAL-12T | 0.399 | 0.472 | 0.362 | 0.544 | 0.884 | 0.679 | 0.897 | 0.927 | 0.597 | 0.585 | 0.568 | 0.563 | 0.482 | 0.349 | 0.395 | 0.386 | 0.585 | 0.491 | 0.751 | 0.746
16 | NCI-H2085 | 0.53 | 0.4 | 0.49 | 0.42 | 1.01 | 0.806 | 0.861 | 0.809 | 0.789 | 0.655 | 0.745 | 0.674 | 0.447 | 0.419 | 0.409 | 0.324 | 1 | 0.684 | 0.874 | 0.917
17 | NCI-H650 | 0.841 | 0.7 | 0.875 | 0.938 | 0.94 | 0.799 | 1.06 | 0.801 | 0.51 | 0.452 | 0.488 | 0.464 | 1.15 | 0.831 | 0.848 | 0.808 | 0.785 | 0.775 | 0.733 | 0.729
18 | LCLC-97TM1 | 0.769 | 0.815 | 0.741 | 0.675 | 0.169 |  | 0.166 | 0.151 | 0.466 | 0.383 | 0.475 | 0.466 | 0.221 |  | 0.161 | 0.127 | 0.358 |  | 0.474 | 0.404
19 | NCI-H2126 | 0.961 | 0.893 | 0.983 | 0.893 | 0.744 | 0.641 | 0.749 | 0.665 | 0.573 | 0.52 | 0.541 | 0.52 | 0.533 | 0.447 | 0.541 | 0.463 | 1.03 | 0.92 | 1.07 | 1
20 | 201T | 1.09 | 1.01 | 1.09 | 1 | 1.03 | 0.874 | 1.06 | 0.891 | 0.49 | 0.433 | 0.449 | 0.426 | 0.729 | 0.629 | 0.742 | 0.555 | 1.05 | 0.972 | 1.08 | 1.05
21 | NCI-H1915 | 0.765 | 0.638 | 0.72 | 0.565 | 1.12 | 1.04 | 1.03 | 1.07 | 0.35 | 0.349 | 0.363 | 0.376 | 0.978 | 0.839 | 0.924 | 0.845 | 0.892 | 0.829 | 0.855 | 0.901
22 | BEN | 0.418 | 0.391 | 0.384 | 0.179 | 1.04 | 0.883 | 0.9 | 0.721 | 0.26 | 0.292 | 0.248 | 0.245 | 0.604 | 0.538 | 0.535 | 0.406 | 0.92 | 0.818 | 0.894 | 0.658
23 | NCI-H2347 | 0.568 | 0.373 | 0.289 | 0.297 | 0.943 | 0.902 | 0.92 | 0.984 | 0.557 | 0.382 | 0.488 | 0.367 | 0.739 | 0.772 | 0.714 | 0.519 | 0.725 | 0.581 | 0.568 | 0.651
24 | H3255 | 1.02 | 0.726 | 0.957 | 0.865 | 1.09 | 0.953 | 0.943 | 0.931 | 0.354 | 0.326 | 0.345 | 0.352 | 0.566 | 0.521 | 0.498 | 0.462 | 1.01 | 0.835 | 0.89 | 0.809
25 | NCI-H441 | 0.407 | 0.276 | 0.355 | 0.338 | 0.633 | 0.508 | 0.495 | 0.458 | 0.942 | 0.886 | 0.867 | 0.862 | 0.475 | 0.392 | 0.566 | 0.356 | 0.787 | 0.708 | 0.771 | 0.636
26 | NCI-H2228 | 0.173 | 0.172 | 0.125 | 0.111 | 0.847 | 0.481 | 0.681 | 0.751 | 0.345 | 0.256 | 0.419 | 0.269 | 0.431 | 0.358 | 0.345 | 0.335 | 0.453 | 0.427 | 0.316 | 0.3
27 | NCI-H1975 | 0.266 | 0.0934 | 0.223 | 0.209 | 1.07 | 0.916 | 0.938 | 0.769 | 0.431 | 0.392 | 0.414 | 0.418 | 0.302 | 0.235 | 0.252 | 0.211 | 0.954 | 0.846 | 0.954 | 0.862
